{
  "source": "patent US20230075856A1",
  "about": "“CYCLIC SULFAMIDE COMPOUNDS FOR TREATMENT OF HBV” (Assembly Biosciences, Inc., priority 2018, published 2023)",
  "test_system": "HBV viral load production from HepAD38 cells",
  "experiment": "Viral production from HepAD38 cells: viral load in supernatant by qPCR of the HBV core sequence",
  "assay_type": "cell-based",
  "details": "5 days incubation, qPCR of supernatant HBV DNA vs DMSO control, read-out: viral load lowering EC50 (Activity)",
  "how_it_was_run": "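HepAD38 cells seeded at 50,000/well in tetracycline-free medium with 2% FBS, treated with compounds (final top concentration 10 μM) for 5 days at 37 °C. Supernatant HBV DNA quantified by TaqMan qPCR of core sequence against HBV DNA standards, relative to DMSO controls; EC50 by four-parameter logistic fit.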",
  "key": {"[1]": {"details": "Hepatitis B virus, HePAD38, 120 h"}},
  "note": "pEC50: −log10 of the molar value. Read-outs that look alike come from different tables or passages of the source.",
  "data": [
    {"smiles": "CN1C(C(=O)Nc2ccc(F)c(Cl)c2)CC(C(=O)NC2CCN(C(=O)OC(C)(C)C)CC2)NS1(=O)=O", "note": "(single isomer, unassigned) [Compound 767-ISOMER-B, tert-butyl 4-[[5-[(3-chloro-4-fluoro-phenyl)carbamoyl]-6-methyl-1,1-dioxo-1,2,6-thiadiazinane-3-carbonyl]amino]piperidine-1-carboxylate]", "values": [
      {"measurement": "pEC50", "result": "5.00 to 7.00"}
    ]},
    {"smiles": "CN1C(C(=O)Nc2ccc(F)c(Cl)c2)CC(C(=O)NC2CCN(c3ccccn3)CC2)NS1(=O)=O", "note": "(single isomer, unassigned) [Compound 769-ISOMER-A, N3-(3-chloro-4-fluoro-phenyl)-2-methyl-1,1-dioxo-N5-[1-(2-pyridyl)-4-piperidyl]-1,2,6-thiadiazinane-3,5-dicarboxamide]", "values": [
      {"measurement": "pEC50", "setting": "[1]", "result": "> 7.30"}
    ]},
    {"smiles": "CN1C(C(=O)Nc2ccc(F)c(Cl)c2)CC(C(=O)NC2CCN(c3ccccn3)CC2)NS1(=O)=O", "note": "(single isomer, unassigned) [Compound 769-ISOMER-B, N3-(3-chloro-4-fluoro-phenyl)-2-methyl-1,1-dioxo-N5-[1-(2-pyridyl)-4-piperidyl]-1,2,6-thiadiazinane-3,5-dicarboxamide]", "values": [
      {"measurement": "pEC50", "result": "5.00 to 7.00"}
    ]},
    {"smiles": "CN1C(C(=O)Nc2ccc(F)c(Cl)c2)CC(C(=O)NCc2ccccc2-c2cn(C)cn2)NS1(=O)=O", "note": "(single isomer, unassigned) [Compound 823-ISOMER-B, N3-(3-chloro-4-fluoro-phenyl)-2-methyl-N5-[[2-(1-methylimidazol-4-yl)phenyl]methyl]-1,1-dioxo-1,2,6-thiadiazinane-3,5-dicarboxamide]", "values": [
      {"measurement": "pEC50", "setting": "[1]", "result": "5.00 to 7.00"}
    ]},
    {"smiles": "CN1C(C(=O)Nc2ccc(F)c(Cl)c2)CC(C(=O)NC2CCN(C(=O)C3CC3)CC2)NS1(=O)=O", "note": "(single isomer, unassigned) [Compound 854-ISOMER-A, N3-(3-chloro-4-fluoro-phenyl)-N5-[1-(cyclopropanecarbonyl)-4-piperidyl]-2-methyl-1,1-dioxo-1,2,6-thiadiazinane-3,5-dicarboxamide]", "values": [
      {"measurement": "pEC50", "setting": "[1]", "result": "> 7.30"}
    ]},
    {"smiles": "CN1C(C(=O)Nc2ccc(F)c(Cl)c2)CC(C(=O)NC2CCN(C(=O)C3CC3)CC2)NS1(=O)=O", "note": "(single isomer, unassigned) [Compound 854-ISOMER-B, N3-(3-chloro-4-fluoro-phenyl)-N5-[1-(cyclopropanecarbonyl)-4-piperidyl]-2-methyl-1,1-dioxo-1,2,6-thiadiazinane-3,5-dicarboxamide]", "values": [
      {"measurement": "pEC50", "result": "5.00 to 7.00"}
    ]},
    {"smiles": "CN1C(C(=O)Nc2ccc(F)c(Cl)c2)CC(C(=O)NC2CCN(c3ncccn3)CC2)NS1(=O)=O", "note": "(single isomer, unassigned) [Compound 855-ISOMER-A, N3-(3-chloro-4-fluoro-phenyl)-2-methyl-1,1-dioxo-N5-(1-pyrimidin-2-yl-4-piperidyl)-1,2,6-thiadiazinane-3,5-dicarboxamide]", "values": [
      {"measurement": "pEC50", "setting": "[1]", "result": "> 7.30"}
    ]},
    {"smiles": "CN1C(C(=O)Nc2ccc(F)c(Cl)c2)CC(C(=O)NC2CCN(c3ncccn3)CC2)NS1(=O)=O", "note": "(single isomer, unassigned) [Compound 855-ISOMER-B, N3-(3-chloro-4-fluoro-phenyl)-2-methyl-1,1-dioxo-N5-(1-pyrimidin-2-yl-4-piperidyl)-1,2,6-thiadiazinane-3,5-dicarboxamide]", "values": [
      {"measurement": "pEC50", "result": "5.00 to 7.00"}
    ]},
    {"smiles": "CC(C)OC1CCC(NC(=O)C2CC(C(=O)Nc3ccc(F)c(Cl)c3)N(C)S(=O)(=O)N2)CC1", "note": "(single isomer, unassigned) [Compound 862-ISOMER-A, N3-(3-chloro-4-fluoro-phenyl)-N5-(4-isopropoxycyclohexyl)-2-methyl-1,1-dioxo-1,2,6-thiadiazinane-3,5-dicarboxamide]", "values": [
      {"measurement": "pEC50", "setting": "[1]", "result": "5.00 to 7.00"}
    ]},
    {"smiles": "CC(C)OC1CCC(NC(=O)C2CC(C(=O)Nc3ccc(F)c(Cl)c3)N(C)S(=O)(=O)N2)CC1", "note": "(single isomer, unassigned) [Compound 862-ISOMER-B, N3-(3-chloro-4-fluoro-phenyl)-N5-(4-isopropoxycyclohexyl)-2-methyl-1,1-dioxo-1,2,6-thiadiazinane-3,5-dicarboxamide]", "values": [
      {"measurement": "pEC50", "result": "> 7.30"}
    ]},
    {"smiles": "CCN1C(C(=O)Nc2ccc(F)c(Cl)c2)CC(C(=O)NCc2cnc(C)s2)NS1(=O)=O", "note": "(single isomer, unassigned) [Compound 888-ISOMER-A, N3-(3-chloro-4-fluoro-phenyl)-2-ethyl-N5-[(2-methylthiazol-5-yl)methyl]-1,1-dioxo-1,2,6-thiadiazinane-3,5-dicarboxamide]", "values": [
      {"measurement": "pEC50", "setting": "[1]", "result": "5.00 to 7.00"}
    ]},
    {"smiles": "CCN1C(C(=O)Nc2ccc(F)c(Cl)c2)CC(C(=O)NCc2cnc(C)s2)NS1(=O)=O", "note": "(single isomer, unassigned) [Compound 888-ISOMER-B, N3-(3-chloro-4-fluoro-phenyl)-2-ethyl-N5-[(2-methylthiazol-5-yl)methyl]-1,1-dioxo-1,2,6-thiadiazinane-3,5-dicarboxamide]", "values": [
      {"measurement": "pEC50", "result": "> 7.30"}
    ]},
    {"smiles": "CCN1C(C(=O)Nc2ccc(F)c(Cl)c2)CC(C(=O)NC2CCN(C(=O)OC)CC2)NS1(=O)=O", "note": "(single isomer, unassigned) [Compound 890-ISOMER-A, methyl 4-[[5-[(3-chloro-4-fluoro-phenyl)carbamoyl]-6-ethyl-1,1-dioxo-1,2,6-thiadiazinane-3-carbonyl]amino]piperidine-1-carboxylate]", "values": [
      {"measurement": "pEC50", "setting": "[1]", "result": "> 7.30"}
    ]},
    {"smiles": "CCN1C(C(=O)Nc2ccc(F)c(Cl)c2)CC(C(=O)NC2CCN(C(=O)OC)CC2)NS1(=O)=O", "note": "(single isomer, unassigned) [Compound 890-ISOMER-B, methyl 4-[[5-[(3-chloro-4-fluoro-phenyl)carbamoyl]-6-ethyl-1,1-dioxo-1,2,6-thiadiazinane-3-carbonyl]amino]piperidine-1-carboxylate]", "values": [
      {"measurement": "pEC50", "result": "5.00 to 7.00"}
    ]},
    {"smiles": "Cc1ncc(CNC(=O)C2CC(C(=O)Nc3ccc(F)c(Cl)c3)N(CC(F)(F)F)S(=O)(=O)N2)s1", "note": "(single isomer, unassigned) [Compound 891-ISOMER-A, N3-(3-chloro-4-fluoro-phenyl)-N5-[(2-methylthiazol-5-yl)methyl]-1,1-dioxo-2-(2,2,2-trifluoroethyl)-1,2,6-thiadiazinane-3,5-dicarboxamide]", "values": [
      {"measurement": "pEC50", "setting": "[1]", "result": "5.00 to 7.00"}
    ]},
    {"smiles": "COCCN1C(C(=O)Nc2ccc(F)c(Cl)c2)CC(C(=O)NC2CCN(C(=O)OC)CC2)NS1(=O)=O", "note": "(single isomer, unassigned) [Compound 896-ISOMER-A, methyl 4-[[5-[(3-chloro-4-fluoro-phenyl)carbamoyl]-6-(2-methoxyethyl)-1,1-dioxo-1,2,6-thiadiazinane-3-carbonyl]amino]piperidine-1-carboxylate]", "values": [
      {"measurement": "pEC50", "setting": "[1]", "result": "7.00 to 7.30"}
    ]},
    {"smiles": "CN1C(C(=O)Nc2ccc(F)c(Cl)c2)CC(C(=O)NCc2ccccc2-n2ccnc2)NS1(=O)=O", "note": "(single isomer, unassigned) [Compound 910-ISOMER-B, N3-(3-chloro-4-fluoro-phenyl)-N5-[(2-imidazol-1-ylphenyl)methyl]-2-methyl-1,1-dioxo-1,2,6-thiadiazinane-3,5-dicarboxamide]", "values": [
      {"measurement": "pEC50", "setting": "[1]", "result": "5.00 to 7.00"}
    ]},
    {"smiles": "CN1C(C(=O)Nc2ccc(F)c(Cl)c2)CC(C(=O)NCc2cnc(-c3cccnc3)s2)NS1(=O)=O", "note": "(single isomer, unassigned) [Compound 911-ISOMER-A, N3-(3-chloro-4-fluoro-phenyl)-2-methyl-1,1-dioxo-N5-[[2-(3-pyridyl)thiazol-5-yl]methyl]-1,2,6-thiadiazinane-3,5-dicarboxamide]", "values": [
      {"measurement": "pEC50", "setting": "[1]", "result": "5.00 to 7.00"}
    ]},
    {"smiles": "CN1C(C(=O)Nc2ccc(F)c(Cl)c2)CC(C(=O)NCc2cnc(-c3ccccc3Cl)s2)NS1(=O)=O", "note": "(single isomer, unassigned) [Compound 912-ISOMER-A, N3-(3-chloro-4-fluoro-phenyl)-N5-[[2-(2-chlorophenyl)thiazol-5-yl]methyl]-2-methyl-1,1-dioxo-1,2,6-thiadiazinane-3,5-dicarboxamide]", "values": [
      {"measurement": "pEC50", "setting": "[1]", "result": "5.00 to 7.00"}
    ]},
    {"smiles": "CN1C(C(=O)Nc2ccc(F)c(Cl)c2)CC(C(=O)NCc2cnc(-c3ccccc3Cl)s2)NS1(=O)=O", "note": "(single isomer, unassigned) [Compound 912-ISOMER-B, N3-(3-chloro-4-fluoro-phenyl)-N5-[[2-(2-chlorophenyl)thiazol-5-yl]methyl]-2-methyl-1,1-dioxo-1,2,6-thiadiazinane-3,5-dicarboxamide]", "values": [
      {"measurement": "pEC50", "result": "> 7.30"}
    ]},
    {"smiles": "CN1C(C(=O)Nc2ccc(F)c(Cl)c2)CC(C(=O)NCc2cnc(-c3cccc(Cl)c3)s2)NS1(=O)=O", "note": "(single isomer, unassigned) [Compound 913-ISOMER-A, N3-(3-chloro-4-fluoro-phenyl)-N5-[[2-(3-chlorophenyl)thiazol-5-yl]methyl]-2-methyl-1,1-dioxo-1,2,6-thiadiazinane-3,5-dicarboxamide]", "values": [
      {"measurement": "pEC50", "setting": "[1]", "result": "5.00 to 7.00"}
    ]},
    {"smiles": "Cc1nc(-c2ccccc2)sc1CNC(=O)C1CC(C(=O)Nc2ccc(F)c(Cl)c2)N(C)S(=O)(=O)N1", "note": "(single isomer, unassigned) [Compound 914-ISOMER-A, N3-(3-chloro-4-fluoro-phenyl)-2-methyl-N5-[(4-methyl-2-phenyl-thiazol-5-yl)methyl]-1,1-dioxo-1,2,6-thiadiazinane-3,5-dicarboxamide]", "values": [
      {"measurement": "pEC50", "setting": "[1]", "result": "> 7.30"}
    ]},
    {"smiles": "Cc1nc(-c2ccccc2)sc1CNC(=O)C1CC(C(=O)Nc2ccc(F)c(Cl)c2)N(C)S(=O)(=O)N1", "note": "(single isomer, unassigned) [Compound 914-ISOMER-B, N3-(3-chloro-4-fluoro-phenyl)-2-methyl-N5-[(4-methyl-2-phenyl-thiazol-5-yl)methyl]-1,1-dioxo-1,2,6-thiadiazinane-3,5-dicarboxamide]", "values": [
      {"measurement": "pEC50", "result": "7.00 to 7.30"}
    ]},
    {"smiles": "CN1C(C(=O)Nc2ccc(F)c(Cl)c2)CC(C(=O)NCc2cnc(-c3ccc(F)cc3)s2)NS1(=O)=O", "note": "(single isomer, unassigned) [Compound 916-ISOMER-A, N3-(3-chloro-4-fluoro-phenyl)-N5-[[2-(4-fluorophenyl)thiazol-5-yl]methyl]-2-methyl-1,1-dioxo-1,2,6-thiadiazinane-3,5-dicarboxamide]", "values": [
      {"measurement": "pEC50", "setting": "[1]", "result": "5.00 to 7.00"}
    ]},
    {"smiles": "CN1C(C(=O)Nc2ccc(F)c(Cl)c2)CC(C(=O)NCc2cnc(-c3ccc(F)cc3)s2)NS1(=O)=O", "note": "(single isomer, unassigned) [Compound 916-ISOMER-B, N3-(3-chloro-4-fluoro-phenyl)-N5-[[2-(4-fluorophenyl)thiazol-5-yl]methyl]-2-methyl-1,1-dioxo-1,2,6-thiadiazinane-3,5-dicarboxamide]", "values": [
      {"measurement": "pEC50", "result": "> 7.30"}
    ]}
  ]
}
